Where a name gives a salt, the structure may show the parent alone. Read-outs that look alike come from different tables or passages of the source. Values belong to the compound of their own block, whether it stands above or below them.
Tests used:
Type in all cases: biochemical
[1] = biological target: T1, human JAK1 (a.a. 837-1142) (Homo sapiens, UniProt P23458); test: In vitro JAK kinase assay (HTRF, phosphorylation of a biotinylated peptide), JAK1; conditions: read-out: JAK1 IC50
T1 construct: human JAK1 (a.a. 837-1142); His tag (N); made in house; host or cells: insect cells (baculovirus)
Outline: (§1)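 Kinase reactions ran at room temperature for 1 h with ATP matched per isoform (JAK1 90 μM, JAK2 30 μM, JAK3 3 μM). After an EDTA stop, the phosphorylated biotin-peptide was read by HTRF using Eu-Py20 and SA-APC after 40 min binding.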

[2] = biological target: T2, human JAK2 (a.a. 828-1132) (Homo sapiens, UniProt O60674); test: In vitro JAK kinase assay (HTRF, phosphorylation of a biotinylated peptide), JAK2
T2 construct: JAK2 (a.a. 828-1132); His tag (N); made in house; host or cells: insect cells (baculovirus)
Outline: as §1

[3] = biological target: T3, human JAK3 (a.a. 781-1124) (Homo sapiens, UniProt P52333); test: In vitro JAK kinase assay (HTRF, phosphorylation of a biotinylated peptide), JAK3
T3 construct: JAK3 (a.a. 781-1124); His tag (N); made in house; host or cells: insect cells (baculovirus)
Outline: as §1

TYK2 = TYK2 (Homo sapiens, UniProt P29597); test: TYK2 kinase inhibition (Table A1)
[4] = biological target: T4, Recombinant Human Anaplastic Lymphoma Kinase (Homo sapiens, UniProt Q9UM73); test: ALK HTRF kinase assay
T4 construct: purchased Invitrogen, Carlsbad, Calif
Outline: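 Readout was HTRF between a Eu-W1024 anti-phosphotyrosine antibody and streptavidin-APC bound to biotinylated peptide phosphorylated by recombinant human ALK. IC50 values came from a four-parameter logistic fit.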

[5] = percentage inhibition of the example compound at a concentration of 500 nM or 1 mM (not specified which)
[6] = compound at a concentration of 500 nM or 1 mM (not specified), cells shown as percentage
[7] = Table B1, cells without percent sign
[8] = method AA1 (90 μM ATP) or AA2 (1000 μM ATP), not stated per value
[9] = method AA1 (30 μM ATP) or AA2 (1000 μM ATP), not stated per value
[10] = method AA1 (3 μM ATP) or AA2 (1000 μM ATP), not stated per value
[11] = compound at 500 nM or 1 mM, 90 μM ATP

T1 sequence (P23458 849-1154): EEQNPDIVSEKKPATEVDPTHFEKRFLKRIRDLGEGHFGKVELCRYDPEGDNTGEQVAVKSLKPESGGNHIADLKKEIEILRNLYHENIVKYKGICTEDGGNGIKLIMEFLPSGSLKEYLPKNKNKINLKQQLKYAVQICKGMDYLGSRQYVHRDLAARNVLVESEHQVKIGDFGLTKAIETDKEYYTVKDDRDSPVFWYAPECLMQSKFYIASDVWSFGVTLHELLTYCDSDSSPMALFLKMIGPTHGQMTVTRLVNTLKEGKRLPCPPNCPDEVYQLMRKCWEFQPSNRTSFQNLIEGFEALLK
T3 sequence (P52333 781-1124): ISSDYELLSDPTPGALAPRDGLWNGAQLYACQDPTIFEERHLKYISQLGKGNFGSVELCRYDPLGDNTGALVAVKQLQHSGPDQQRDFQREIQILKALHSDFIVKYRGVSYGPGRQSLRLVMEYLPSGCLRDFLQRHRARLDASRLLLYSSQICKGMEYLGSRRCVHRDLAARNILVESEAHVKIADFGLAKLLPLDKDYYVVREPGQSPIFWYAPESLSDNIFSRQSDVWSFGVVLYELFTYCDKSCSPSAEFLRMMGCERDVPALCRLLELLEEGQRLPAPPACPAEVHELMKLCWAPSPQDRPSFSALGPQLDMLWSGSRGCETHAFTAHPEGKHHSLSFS
Sequence of TYK2 (P29597 whole entry): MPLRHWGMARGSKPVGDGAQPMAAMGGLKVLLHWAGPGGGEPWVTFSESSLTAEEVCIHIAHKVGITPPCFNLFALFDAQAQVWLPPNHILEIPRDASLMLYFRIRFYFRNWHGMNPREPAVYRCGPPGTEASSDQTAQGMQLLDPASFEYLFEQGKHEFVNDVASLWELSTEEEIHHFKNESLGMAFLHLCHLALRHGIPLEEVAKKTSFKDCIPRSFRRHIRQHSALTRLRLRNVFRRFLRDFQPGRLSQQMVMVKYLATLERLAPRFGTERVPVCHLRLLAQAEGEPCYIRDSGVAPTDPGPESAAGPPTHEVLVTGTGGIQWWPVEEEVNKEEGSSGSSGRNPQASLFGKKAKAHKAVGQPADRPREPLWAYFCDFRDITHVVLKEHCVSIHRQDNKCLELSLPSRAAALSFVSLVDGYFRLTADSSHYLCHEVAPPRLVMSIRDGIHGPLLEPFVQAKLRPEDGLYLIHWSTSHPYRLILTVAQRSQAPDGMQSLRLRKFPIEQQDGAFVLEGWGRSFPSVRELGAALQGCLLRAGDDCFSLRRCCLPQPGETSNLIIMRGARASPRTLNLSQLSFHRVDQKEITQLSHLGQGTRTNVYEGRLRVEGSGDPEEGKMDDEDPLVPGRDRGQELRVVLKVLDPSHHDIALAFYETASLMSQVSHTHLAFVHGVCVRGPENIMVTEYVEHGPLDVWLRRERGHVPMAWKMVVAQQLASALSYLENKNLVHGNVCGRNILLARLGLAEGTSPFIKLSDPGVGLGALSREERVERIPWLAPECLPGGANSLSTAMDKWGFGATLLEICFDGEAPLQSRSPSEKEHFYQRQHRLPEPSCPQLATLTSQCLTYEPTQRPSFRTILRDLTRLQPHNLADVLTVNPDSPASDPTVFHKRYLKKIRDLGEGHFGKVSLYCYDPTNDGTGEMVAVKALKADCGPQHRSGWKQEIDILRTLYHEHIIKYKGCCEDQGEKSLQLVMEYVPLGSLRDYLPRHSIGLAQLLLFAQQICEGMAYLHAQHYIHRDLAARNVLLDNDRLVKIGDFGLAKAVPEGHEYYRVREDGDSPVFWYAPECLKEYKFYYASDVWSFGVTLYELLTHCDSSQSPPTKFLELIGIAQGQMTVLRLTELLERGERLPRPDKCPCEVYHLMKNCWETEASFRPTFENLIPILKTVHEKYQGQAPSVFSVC
T4 sequence (Q9UM73 19-1620): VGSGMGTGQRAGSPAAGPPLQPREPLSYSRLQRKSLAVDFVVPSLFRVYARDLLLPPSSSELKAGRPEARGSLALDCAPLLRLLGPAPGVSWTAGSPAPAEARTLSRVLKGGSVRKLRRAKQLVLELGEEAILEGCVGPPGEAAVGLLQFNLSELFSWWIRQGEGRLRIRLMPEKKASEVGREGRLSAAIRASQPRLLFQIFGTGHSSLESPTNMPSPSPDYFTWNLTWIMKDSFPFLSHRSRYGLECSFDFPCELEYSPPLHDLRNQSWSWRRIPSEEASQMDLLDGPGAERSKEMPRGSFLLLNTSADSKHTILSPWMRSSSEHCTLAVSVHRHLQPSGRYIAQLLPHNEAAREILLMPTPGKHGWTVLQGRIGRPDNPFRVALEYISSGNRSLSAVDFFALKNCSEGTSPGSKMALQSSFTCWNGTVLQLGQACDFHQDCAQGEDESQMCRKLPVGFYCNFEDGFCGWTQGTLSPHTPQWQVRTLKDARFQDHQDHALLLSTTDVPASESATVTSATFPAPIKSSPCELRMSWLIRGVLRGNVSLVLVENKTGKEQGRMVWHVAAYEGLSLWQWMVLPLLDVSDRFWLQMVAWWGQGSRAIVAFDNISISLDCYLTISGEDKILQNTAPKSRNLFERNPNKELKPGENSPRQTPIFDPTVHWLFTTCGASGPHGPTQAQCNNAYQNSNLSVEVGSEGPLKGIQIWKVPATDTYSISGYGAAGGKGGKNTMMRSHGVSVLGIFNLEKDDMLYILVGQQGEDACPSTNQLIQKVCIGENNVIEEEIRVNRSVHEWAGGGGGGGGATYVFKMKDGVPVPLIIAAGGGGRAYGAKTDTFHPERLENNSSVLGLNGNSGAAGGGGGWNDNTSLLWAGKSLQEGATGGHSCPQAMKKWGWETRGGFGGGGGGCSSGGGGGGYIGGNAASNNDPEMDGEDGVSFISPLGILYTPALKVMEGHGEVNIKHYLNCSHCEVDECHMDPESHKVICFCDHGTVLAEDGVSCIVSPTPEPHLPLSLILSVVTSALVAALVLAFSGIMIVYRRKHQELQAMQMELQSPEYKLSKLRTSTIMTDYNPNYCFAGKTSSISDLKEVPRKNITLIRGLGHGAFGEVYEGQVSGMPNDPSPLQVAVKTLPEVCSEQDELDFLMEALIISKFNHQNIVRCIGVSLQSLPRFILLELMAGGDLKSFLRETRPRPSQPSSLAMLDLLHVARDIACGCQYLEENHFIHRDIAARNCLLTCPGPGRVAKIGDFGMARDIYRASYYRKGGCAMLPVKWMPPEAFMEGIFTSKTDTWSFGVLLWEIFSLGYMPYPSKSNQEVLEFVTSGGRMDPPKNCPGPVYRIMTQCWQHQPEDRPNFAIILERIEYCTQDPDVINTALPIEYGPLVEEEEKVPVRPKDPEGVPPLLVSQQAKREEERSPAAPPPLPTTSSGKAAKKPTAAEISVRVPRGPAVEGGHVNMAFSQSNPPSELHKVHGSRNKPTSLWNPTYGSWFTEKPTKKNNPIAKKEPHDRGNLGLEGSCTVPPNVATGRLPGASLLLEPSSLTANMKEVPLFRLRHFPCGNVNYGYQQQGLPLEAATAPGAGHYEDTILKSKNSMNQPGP
T2 sequence (O60674 828-1132): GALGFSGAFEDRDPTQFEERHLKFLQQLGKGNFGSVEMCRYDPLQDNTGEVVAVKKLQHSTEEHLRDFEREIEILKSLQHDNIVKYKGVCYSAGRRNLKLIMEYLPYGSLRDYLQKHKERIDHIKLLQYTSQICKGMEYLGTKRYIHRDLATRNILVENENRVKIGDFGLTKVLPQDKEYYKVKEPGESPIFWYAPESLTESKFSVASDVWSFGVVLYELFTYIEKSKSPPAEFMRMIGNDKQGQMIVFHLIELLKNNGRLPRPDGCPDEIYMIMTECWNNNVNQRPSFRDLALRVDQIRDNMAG

SMILES: Cc1cncc(N2CCN(C(=O)Nc3ccc4cc3CCc3cncc(c3)Nc3ncc(Cl)c(n3)N4)CC2)n1 [Example B308, N-[6-Chloro-2,4,8,18,22-pentaazatetracyclo[14.3.1.1(3,7).1(9,13)]docosa-1(20),3(22),4,6,9(21),10,12,16,18-nonaen-12-yl]-4-(6-methylpyrazin-2-yl)piperazine-1-carboxamide tris(trifluoroacetate)]
- IC50 ([1]; Table B1): 16 nM
- IC50 ([2]; Table B1): 83 nM
- IC50 ([3]; Table B1): > 400 nM
- IC50 (TYK2; Table B1): 34 nM
- ALK % of inhibition at a concentration of 500 nM or 1 mM [4, 5]: 79%

SMILES: CCCc1ccccc1NC(=O)Nc1ccc2cc1CCc1cccc(c1)Nc1ncc(Cl)c(n1)N2 [Example B105, N-[6-Chloro-2,4,8,22-tetraazatetracyclo[14.3.1.1(3,7).1(9,13)]docosa-1(20), 3(22),4,6,9(21),10,12,16,18-nonaen-12-yl]-N′-(2-propylphenyl)urea trifluoroacetate]
- IC50 ([1]; Table B1): 3.9 nM
- IC50 ([2]; Table B1): 10 nM
- IC50 ([3]; Table B1): 43 nM
- IC50 (TYK2; Table B1): 13 nM
- ALK % of inhibition at a concentration of 500 nM or 1 mM [4, 6]: 52%

SMILES: CS(=O)(=O)N1CCN(c2ccc(-c3cc4cc(c3)Nc3ncc(Cl)c(n3)Nc3cccc(c3)OCC4)cn2)CC1 [Example D38, 6-Chloro-19-{6-[4-(methylsulfonyl)piperazin-1-yl]pyridin-3-yl}-14-oxa-2,4,8,23-tetraazatetracyclo[15.3.1.1(3,7).1(9,13)]tricosa-1(21),3(23),4,6,9(22),10,12,17,19-nonaene bis(trifluoroacetate)]
- IC50 ([1]; Table D1): 1.1 nM
- IC50 ([2]; Table D1): 0.9 nM
- IC50 ([3]; Table D1): 19 nM
- IC50 (TYK2; Table D1): 4 nM
- IC50 ([4]; Table D1, 90 μM ATP): 442 nM

SMILES: Cc1csc(NC(=O)Nc2ccc3cc2CCc2cccc(c2)Nc2ncc(Cl)c(n2)N3)c1 [Example B120, N-[6-Chloro-2,4,8,22-tetraazatetracyclo[14.3.1.1(3,7).1(9,13)]docosa-1(20), 3(22),4,6,9(21),10,12,16,18-nonaen-12-yl]-N′-(4-methyl-2-thienyl)urea trifluoroacetate]
- IC50 ([1]; Table B1): 6.7 nM
- IC50 ([2]; Table B1): 7.9 nM
- IC50 ([3]; Table B1): 68 nM
- IC50 (TYK2; Table B1): 25 nM
- ALK % of inhibition at a concentration of 500 nM or 1 mM [4, 6]: 16%

SMILES: Clc1cnc2nc1Nc1cccc(c1)OCCSc1cccc(c1)N2 [Example D15, 6-Chloro-14-oxa-17-thia-2,4,8,24-tetraazatetracyclo[16.3.1.1(3,7).1(9,13)]tetracosa-1(22),3(24),4,6,9(23),10,12,18,20-nonaene trifluoroacetate]
- IC50 ([1]; Table D1): 93 nM
- IC50 ([2]; Table D1): 61 nM
- IC50 ([3]; Table D1): 135 nM
- IC50 (TYK2; Table D1): 88 nM
- IC50 ([4]; Table D1, 90 μM ATP): > 10000 nM

SMILES: Nc1ccc2cc1CCc1cccc(c1)Nc1ncc(Cl)c(n1)N2 [Example B19, 6-Chloro-2,4,8,22-tetraazatetracyclo[14.3.1.1(3,7).1(9,13)]docosa-1(20),3(22),4,6,9(21),10,12,16,18-nonaen-12-amine dihydrochloride]
- IC50 ([1]; Table B1): 1.3 nM
- IC50 ([2]; Table B1): 0.97 nM
- IC50 ([3]; Table B1): 7.5 nM
- IC50 (TYK2; Table B1): 2.5 nM
- IC50 [4, 7]: 610 nM

SMILES: CCCS(=O)(=O)NCCNC(=O)Nc1ccc2cc1CCc1cccc(c1)Nc1ncc(Cl)c(n1)N2 [Example B326, N-{2-[({[6-Chloro-2,4,8,22-tetraazatetracyclo[14.3.1.1(3,7).1(9,13)]docosa-1(20),3(22),4,6,9(21),10,12,16,18-nonaen-12-yl]amino}carbonyl)amino]ethyl}propane-1-sulfonamide trifluoroacetate]
- IC50 ([1]; Table B1): 3 nM
- IC50 ([2]; Table B1): 3.4 nM
- IC50 ([3]; Table B1): 7.8 nM
- IC50 (TYK2; Table B1): 6.9 nM
- ALK % of inhibition at a concentration of 500 nM or 1 mM [4, 5]: 19%

SMILES: O=C(CCC1CCNCC1)Nc1ccc2cc1CCc1cncc(c1)Nc1ncc(Cl)c(n1)N2 [Example A117, N-[6-Chloro-2,4,8,18,22-pentaaazatetracyclo[14.3.1.1(3,7).1(9,13)]docosa-1(20),3(22),4,6,9(21),10,12,16,18-nonaen-12-yl]-3piperidin-4-ylpropanamide tris(trifluoroacetate)]
- IC50 [1, 8]: 10 nM
- IC50 [2, 9]: 29 nM
- IC50 [3, 10]: 160 nM
- IC50 (TYK2): 44 nM
- ALK % of inhibition at a concentration of 500 nM or 1 mM [4, 11]: 25%

More lines, now with the values ahead:

- IC50 ([1]; Table B1): 22 nM
- IC50 ([2]; Table B1): 8.4 nM
- IC50 ([3]; Table B1): 20 nM
- IC50 (TYK2; Table B1): 47 nM
- IC50 [4, 7]: > 1000 nM
SMILES: O=C(Nc1ccc2cc1CCc1cccc(c1)Nc1ncc(Cl)c(n1)N2)C1CCCC1 [Example B60, N-[6-Chloro-2,4,8,22-tetraazatetracyclo[14.3.1.1(3,7).1(9,13)]docosa-1(20), 3(22),4,6,9(21),10,12,16,18-nonaen-12-yl]cyclopentanecarboxamide trifluoroacetate]

- IC50 [1, 8]: 0.7 nM
- IC50 [2, 9]: 14 nM
- IC50 [3, 10]: > 200 nM
- IC50 (TYK2): 150 nM
- ALK % of inhibition at a concentration of 500 nM or 1 mM [4, 11]: 42%
SMILES: O=C(CC1CCN(S(=O)(=O)c2cccnc2)CC1)Nc1ccc2cc1CCc1cncc(c1)Nc1ncc(Cl)c(n1)N2 [Example A202, N-[6-Chloro-2,4,8,18,22-pentaazatetracyclo[14.3.1.1(3,7).1(9,13)]docosa-1(20),3(22),4,6,9(21),10,12,16,18-nonaen-12-yl]-2-[1-(pyridin-3-ylsulfonyl)piperidin-4-yl]acetamide tris(trifluoroacetate)]

- IC50 ([1]; Table B1): 13 nM
- IC50 ([2]; Table B1): 2.9 nM
- IC50 ([3]; Table B1): 48 nM
- IC50 (TYK2; Table B1): 22 nM
- IC50 [4, 7]: 300 nM
SMILES: O=C(Nc1ccc2cc1CCc1cccc(c1)Nc1ncc(Cl)c(n1)N2)c1cnccn1 [Example B44, N-[6-Chloro-2,4,8,22-tetraazatetracyclo[14.3.1.1(3,7).1(9,13)]docosa-1(20), 3(22),4,6,9(21),10,12,16,18-nonaen-12-yl]pyrazine-2-carboxamide bis(trifluoroacetate)]

- IC50 ([1]; Table B1): 0.81 nM
- IC50 ([2]; Table B1): 2.9 nM
- IC50 ([3]; Table B1): 13 nM
- IC50 (TYK2; Table B1): 5.4 nM
- ALK % of inhibition at a concentration of 500 nM or 1 mM [4, 6]: 24%
SMILES: CNC(=O)Nc1ccc2cc1CCc1cccc(c1)Nc1ncc(Cl)c(n1)N2 [Example B114, N-[6-Chloro-2,4,8,22-tetraazatetracyclo[14.3.1.1(3,7).1(9,13)]docosa-1(20), 3(22),4,6,9(21),10,12,16,18-nonaen-12-yl]-N′-methylurea trifluoroacetate]

- IC50 [1, 8]: 13 nM
- IC50 [2, 9]: > 200 nM
- IC50 [3, 10]: > 200 nM
- IC50 (TYK2): > 200 nM
- ALK % of inhibition at a concentration of 500 nM or 1 mM [4, 11]: 13%
SMILES: O=C(CC1CCN(c2cccc(Cl)n2)CC1)Nc1ccc2cc1CCc1cncc(c1)Nc1ncc(Cl)c(n1)N2 [Example A180, N-[6-Chloro-2,4,8,18,22-pentaazatetracyclo[14.3.1.1(3,7).1(9,13)]docosa-1(20),3(22),4,6,9(21),10,12,16,18-nonaen-12-yl]-2-[1-(6-chloropyridin-2-yl)piperidin-4-yl]acetamide tris(trifluoroacetate)]

- IC50 [1, 8]: 62 nM
- IC50 [2, 9]: > 200 nM
- IC50 [3, 10]: > 200 nM
- IC50 (TYK2): > 200 nM
- ALK % of inhibition at a concentration of 500 nM or 1 mM [4, 11]: 33%
SMILES: O=C(CC1CCN(C(=O)c2ccncc2)CC1)Nc1ccc2cc1CCc1cccc(c1)Nc1ncc(Cl)c(n1)N2 [Example A185, N-[6-Chloro-2,4,8,22-tetraazatetracyclo[14.3.1.1(3,7).1(9,13)]docosa-1(20),3(22),4,6,9(21),10,12,16,18-nonaen-12-yl]-2-(1-isonicotinoylpiperidin-4-yl)acetamide bis(trifluoroacetate)]

Source: US8871753B2, “Macrocyclic compounds and their use as kinase inhibitors” (Incyte Corporation, priority 2008, dated 2014)
